Measurements as given in ChEMBL document CHEMBL1909046, “DrugMatrix in vitro pharmacology data”.

Tests used:
[1] = target: T1, C-X-C chemokine receptor type 1 (Homo sapiens, UniProt P25024); further: in other assays of this panel Not Active means under 50% inhibition at 10 µM
T1 sequence (P25024 whole entry): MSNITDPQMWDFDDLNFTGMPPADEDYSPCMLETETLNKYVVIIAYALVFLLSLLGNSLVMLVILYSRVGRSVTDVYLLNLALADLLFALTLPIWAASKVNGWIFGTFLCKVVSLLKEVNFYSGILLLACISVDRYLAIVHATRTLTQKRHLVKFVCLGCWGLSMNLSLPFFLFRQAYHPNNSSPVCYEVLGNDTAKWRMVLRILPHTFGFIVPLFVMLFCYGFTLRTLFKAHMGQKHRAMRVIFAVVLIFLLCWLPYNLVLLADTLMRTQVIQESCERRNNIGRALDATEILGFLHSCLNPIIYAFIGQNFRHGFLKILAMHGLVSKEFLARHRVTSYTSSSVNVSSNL

[2] = target: Nitric oxide synthase 1 (Rattus norvegicus, UniProt P29476); format: tissue-based, Cerebellum; further: in other assays of this panel Not Active means under 50% inhibition at 10 µM
Chain of Nitric oxide synthase 1 (P29476 whole entry): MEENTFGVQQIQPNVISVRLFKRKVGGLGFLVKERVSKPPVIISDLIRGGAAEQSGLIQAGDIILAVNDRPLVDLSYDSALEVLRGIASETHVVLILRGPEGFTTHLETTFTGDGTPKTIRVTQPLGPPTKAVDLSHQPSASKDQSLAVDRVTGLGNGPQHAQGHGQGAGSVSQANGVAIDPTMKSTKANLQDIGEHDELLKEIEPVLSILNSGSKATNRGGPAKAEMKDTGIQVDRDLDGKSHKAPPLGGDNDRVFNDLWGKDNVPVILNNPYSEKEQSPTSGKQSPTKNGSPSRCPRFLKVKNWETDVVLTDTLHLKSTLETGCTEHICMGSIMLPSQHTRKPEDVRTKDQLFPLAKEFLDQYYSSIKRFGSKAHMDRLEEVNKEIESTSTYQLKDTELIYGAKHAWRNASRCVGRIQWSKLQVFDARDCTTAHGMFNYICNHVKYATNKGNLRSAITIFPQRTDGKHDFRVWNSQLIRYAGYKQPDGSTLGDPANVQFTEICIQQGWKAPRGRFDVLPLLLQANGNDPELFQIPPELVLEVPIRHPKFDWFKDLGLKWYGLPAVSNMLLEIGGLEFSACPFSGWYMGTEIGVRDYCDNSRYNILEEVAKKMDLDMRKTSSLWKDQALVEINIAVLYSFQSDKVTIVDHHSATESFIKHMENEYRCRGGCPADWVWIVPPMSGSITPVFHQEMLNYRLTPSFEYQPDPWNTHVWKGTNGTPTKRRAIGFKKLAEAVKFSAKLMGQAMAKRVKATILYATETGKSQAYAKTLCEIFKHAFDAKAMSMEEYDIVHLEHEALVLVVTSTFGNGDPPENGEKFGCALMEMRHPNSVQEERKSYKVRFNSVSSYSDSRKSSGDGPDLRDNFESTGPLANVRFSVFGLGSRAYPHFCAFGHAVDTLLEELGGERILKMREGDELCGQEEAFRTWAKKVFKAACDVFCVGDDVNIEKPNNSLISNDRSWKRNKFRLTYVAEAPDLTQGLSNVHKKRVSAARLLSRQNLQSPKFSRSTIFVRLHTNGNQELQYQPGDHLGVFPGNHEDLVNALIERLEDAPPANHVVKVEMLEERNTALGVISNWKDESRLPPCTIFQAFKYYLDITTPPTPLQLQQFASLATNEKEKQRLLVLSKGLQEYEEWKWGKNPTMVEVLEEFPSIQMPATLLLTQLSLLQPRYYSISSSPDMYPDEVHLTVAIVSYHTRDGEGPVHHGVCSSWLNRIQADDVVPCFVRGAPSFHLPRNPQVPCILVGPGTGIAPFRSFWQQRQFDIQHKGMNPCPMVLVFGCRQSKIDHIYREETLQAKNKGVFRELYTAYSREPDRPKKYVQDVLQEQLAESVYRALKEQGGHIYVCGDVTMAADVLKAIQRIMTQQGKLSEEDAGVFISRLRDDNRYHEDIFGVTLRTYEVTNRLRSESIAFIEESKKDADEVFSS

[3] = DRUGMATRIX: Phorbol Ester radioligand binding (ligand: [3H] PDBu); format: cell membranes, Mus musculus, ICR, Brain, Membrane; settings: Not Active = under 50% inhibition at 10 µM
[4] = target: Beta-3 adrenergic receptor (Homo sapiens, UniProt P13945); assay: DRUGMATRIX: Adrenergic beta3 radioligand binding (ligand: [125I] Cyanopindolol); format: cell membranes, Membrane; settings: hek293; Not Active = under 50% inhibition at 10 µM
Chain of Beta-3 adrenergic receptor (P13945 whole entry): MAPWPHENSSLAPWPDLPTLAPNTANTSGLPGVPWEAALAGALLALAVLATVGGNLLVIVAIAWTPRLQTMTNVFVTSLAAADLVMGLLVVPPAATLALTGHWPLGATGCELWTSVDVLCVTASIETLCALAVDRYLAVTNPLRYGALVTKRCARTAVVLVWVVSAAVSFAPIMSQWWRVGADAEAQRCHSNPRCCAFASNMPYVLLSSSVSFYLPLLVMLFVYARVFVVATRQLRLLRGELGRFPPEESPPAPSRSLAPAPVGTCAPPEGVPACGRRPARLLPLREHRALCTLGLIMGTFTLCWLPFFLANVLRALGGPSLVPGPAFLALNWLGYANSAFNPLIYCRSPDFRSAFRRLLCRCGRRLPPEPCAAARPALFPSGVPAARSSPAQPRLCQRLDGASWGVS

[5] = DRUGMATRIX: Imidazoline I2, Central radioligand binding (ligand: [3H] Idazoxan); format: cell membranes, Rattus norvegicus, Wistar, Cerebral cortex, Membrane; settings: Not Active = under 50% inhibition at 10 µM
[6] = DRUGMATRIX: Calcium Channel Type L, Phenylalkylamine radioligand binding (ligand: [3H] (-)-Desmethoxyverapamil (D-888)); format: cell membranes, Rattus norvegicus, Wistar, Brain, Membrane; settings: Not Active = under 50% inhibition at 10 µM
[7] = DRUGMATRIX: Atrial Natriuretic Factor (ANF) radioligand binding (ligand: [125I] ANF (rat)); format: cell membranes, Cavia porcellus, Dunkin-Hartley, Adrenal gland, Membrane; settings: Not Active = under 50% inhibition at 10 µM
[8] = target: T2, Alpha-1B adrenergic receptor (Rattus norvegicus, UniProt P15823); assay: DRUGMATRIX: Alpha-1B adrenergic receptor radioligand binding (ligand: prazosin); format: cell membranes, Wistar, Liver, Membrane; settings: Not Active = under 50% inhibition at 10 µM
T2 sequence (P15823 whole entry): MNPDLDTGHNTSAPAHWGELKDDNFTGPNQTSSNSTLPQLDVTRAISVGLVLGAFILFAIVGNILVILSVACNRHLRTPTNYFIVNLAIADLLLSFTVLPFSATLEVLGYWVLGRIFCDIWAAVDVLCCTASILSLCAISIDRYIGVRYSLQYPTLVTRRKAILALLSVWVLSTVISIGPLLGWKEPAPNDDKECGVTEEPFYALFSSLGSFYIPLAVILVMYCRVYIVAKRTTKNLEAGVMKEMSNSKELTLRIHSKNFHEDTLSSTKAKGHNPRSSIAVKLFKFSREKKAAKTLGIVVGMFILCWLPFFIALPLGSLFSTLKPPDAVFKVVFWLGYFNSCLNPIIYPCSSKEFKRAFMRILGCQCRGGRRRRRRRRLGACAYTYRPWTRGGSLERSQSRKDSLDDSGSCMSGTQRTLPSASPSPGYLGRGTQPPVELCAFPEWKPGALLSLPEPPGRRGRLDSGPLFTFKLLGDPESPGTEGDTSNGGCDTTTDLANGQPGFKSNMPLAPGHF

[9] = target: T3, Cathepsin G (Homo sapiens, UniProt P08311); format: tissue-based; settings: neutrophil;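 further: inhibition of Cathepsin G enzyme activity, tested on an AMC-conjugated peptide substrate; in other assays of this panel Not Active means under 50% inhibition at 10 µM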
T3 sequence (P08311 whole entry): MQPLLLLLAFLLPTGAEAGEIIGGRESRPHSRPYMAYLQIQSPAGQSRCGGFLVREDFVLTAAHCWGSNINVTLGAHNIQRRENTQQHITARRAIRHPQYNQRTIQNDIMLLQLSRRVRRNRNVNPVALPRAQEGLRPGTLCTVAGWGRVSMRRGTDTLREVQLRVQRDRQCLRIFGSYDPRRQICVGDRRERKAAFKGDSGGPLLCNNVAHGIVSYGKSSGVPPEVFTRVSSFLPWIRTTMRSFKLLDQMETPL

CCN[C@@H]1C[C@H](N)[C@@H](O[C@H]2OC(CN)=CC[C@H]2N)[C@H](O)[C@H]1O[C@H]1OC[C@](C)(O)[C@H](NC)[C@H]1O [NETILMICIN]
Not Active: IC50 [1] | IC50 [2] | IC50 [3] | Ki [3] | IC50 [4] | IC50 [5] | Ki [5] | IC50 [6] | Ki [6] | IC50 [7] | Ki [7] | IC50 [8] | IC50 [9]

COC(=O)C1=C(C)NC(C)=C(C(=O)OCC(C)C)C1c1ccccc1[N+](=O)[O-] (centres undefined) [NISOLDIPINE]
Not Active: IC50 [1] | IC50 [2] | IC50 [3] | Ki [3] | IC50 [4] | IC50 [5] | Ki [5] | IC50 [6] | Ki [6] | IC50 [7] | Ki [7] | IC50 [8] | IC50 [9]

CCOC(=O)C1=C(C)NC(C)=C(C(=O)OC)C1c1cccc([N+](=O)[O-])c1 (centres undefined) [NITRENDIPINE]
Not Active: IC50 [1] | IC50 [2] | IC50 [3] | Ki [3] | IC50 [4] | IC50 [5] | Ki [5] | IC50 [6] | Ki [6] | IC50 [7] | Ki [7] | IC50 [8] | IC50 [9]

C#C[C@]1(OC(C)=O)CC[C@H]2[C@@H]3CCC4=CC(=O)CC[C@@H]4[C@H]3CC[C@@]21C [NORETHINDRONE ACETATE]
Not Active: IC50 [1] | IC50 [2] | IC50 [3] | Ki [3] | IC50 [4] | IC50 [5] | Ki [5] | IC50 [6] | Ki [6] | IC50 [7] | Ki [7] | IC50 [8] | IC50 [9]

COc1ccc2[nH]c([S+]([O-])Cc3ncc(C)c(OC)c3C)nc2c1 (centres undefined) [OMEPRAZOLE]
Not Active: IC50 [1] | IC50 [2] | IC50 [3] | Ki [3] | IC50 [4] | IC50 [5] | Ki [5] | IC50 [6] | Ki [6] | IC50 [7] | Ki [7] | IC50 [8] | IC50 [9]

Cc1nccn1CC1CCc2c(c3ccccc3n2C)C1=O (centres undefined) [ONDANSETRON]
Not Active: IC50 [1] | IC50 [2] | IC50 [3] | Ki [3] | IC50 [4] | IC50 [5] | Ki [5] | IC50 [6] | Ki [6] | IC50 [7] | Ki [7] | IC50 [8] | IC50 [9]

CCn1cc(C(=O)O)c(=O)c2cc(F)c(N3CCN(C)CC3)cc21 [PEFLOXACIN]
Not Active: IC50 [1] | IC50 [2] | IC50 [3] | Ki [3] | IC50 [4] | IC50 [5] | Ki [5] | IC50 [6] | Ki [6] | IC50 [7] | Ki [7] | IC50 [8] | IC50 [9]

CCCCOc1ccc(OCCCN2CCOCC2)cc1 [PRAMOXINE]
Not Active: IC50 [1] | IC50 [2] | IC50 [3] | Ki [3] | IC50 [4] | IC50 [5] | Ki [5] | IC50 [6] | Ki [6] | IC50 [7] | Ki [7] | IC50 [8] | IC50 [9]

O=C(C1CCCCC1)N1CC(=O)N2CCc3ccccc3C2C1 (centres undefined) [PRAZIQUANTEL]
Not Active: IC50 [1] | IC50 [2] | IC50 [3] | Ki [3] | IC50 [4] | IC50 [5] | Ki [5] | IC50 [6] | Ki [6] | IC50 [7] | Ki [7] | IC50 [8] | IC50 [9]

CCN(CC)CCOC(=O)c1ccc(N)cc1 [PROCAINE]
Not Active: IC50 [1] | IC50 [2] | IC50 [3] | Ki [3] | IC50 [4] | IC50 [5] | Ki [5] | IC50 [6] | Ki [6] | IC50 [7] | Ki [7] | IC50 [8] | IC50 [9]

CCCN(CCC)C(=O)C(CCC(=O)O)NC(=O)c1ccccc1 (centres undefined) [PROGLUMIDE]
Not Active: IC50 [1] | IC50 [2] | IC50 [3] | Ki [3] | IC50 [4] | IC50 [5] | Ki [5] | IC50 [6] | Ki [6] | IC50 [7] | Ki [7] | IC50 [8] | IC50 [9]

NC(=O)c1cnccn1 [PYRAZINAMIDE]
Not Active: IC50 [1] | IC50 [2] | IC50 [3] | Ki [3] | IC50 [4] | IC50 [5] | Ki [5] | IC50 [6] | Ki [6] | IC50 [7] | Ki [7] | IC50 [8] | IC50 [9]

OC(CCN1CCCCC1)(c1ccccc1)C1CCCCC1 (centres undefined) [TRIHEXYPHENIDYL]
Not Active: IC50 [1] | IC50 [2] | IC50 [3] | Ki [3] | IC50 [4] | IC50 [5] | Ki [5] | IC50 [6] | Ki [6] | IC50 [7] | Ki [7] | IC50 [8] | IC50 [9]
